# According to ChEMBL document CHEMBL1201862, “PubChem BioAssay data set” (2004):
# Active and inactive are the calls of the source.
# How the values were obtained:
# [1] = viability of uninfected HEp-2 cells – cell-based, HTS, cytotoxicity control for RSV inhibitor project, dose response (AID 2410); type: functional; details: human respiratory syncytial virus
# [2] = system: BJ; experiment: BJ-TERT fibroblast viability loss – cell-based, RAS-independent, luminescence, dose response (AID 1933); type: functional; details: Homo sapiens
# [3] = system: BJ; experiment: cells; type: functional, cell-based; details: Homo sapiens
# [4] = Trypanosoma cruzi growth suppression in host cells – NIH3T3 host cells, beta-gal luminescence, confirmation (AID 2044); type: functional, cell-based;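 also: intracellular parasites grown in NIH/3T3 mouse fibroblasts as host cells; luminescent beta-galactosidase reporter signal from transgenic T. cruzi replicating inside host cells; inhibitors lower the luminescence signal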
# [5] = NIH3T3 cell viability loss – ATP luminescence, mouse fibroblasts, counter-screen, dose response (AID 2010); type: functional, cell-based;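 also: cells exposed to compound for about 90 hours before reading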
# [6] = system: BJ; experiment: BJ-TERT-LT-ST fibroblast viability loss – cell-based, RAS-independent, luminescence, dose response (AID 1935); type: functional; details: Homo sapiens;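 also: BJ fibroblasts immortalized with TERT plus LT and ST oncogenes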
# [7] = DRD fibroblast viability loss – cell-based, non-viral oncogenic, luminescence, dose response (AID 1934); type: functional; details: Homo sapiens
# [8] = target: T1, Type-1 angiotensin II receptor (Homo sapiens, UniProt P30556); experiment: agonist activity at AGTR1 – cell-based, uHTS hits, selectivity assay for APJ receptor agonist project, dose response (AID 488865); type: functional;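 also: beta-arrestin recruitment to AT1 measured by enzyme fragment complementation luminescence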
# T1 sequence (P30556 whole entry): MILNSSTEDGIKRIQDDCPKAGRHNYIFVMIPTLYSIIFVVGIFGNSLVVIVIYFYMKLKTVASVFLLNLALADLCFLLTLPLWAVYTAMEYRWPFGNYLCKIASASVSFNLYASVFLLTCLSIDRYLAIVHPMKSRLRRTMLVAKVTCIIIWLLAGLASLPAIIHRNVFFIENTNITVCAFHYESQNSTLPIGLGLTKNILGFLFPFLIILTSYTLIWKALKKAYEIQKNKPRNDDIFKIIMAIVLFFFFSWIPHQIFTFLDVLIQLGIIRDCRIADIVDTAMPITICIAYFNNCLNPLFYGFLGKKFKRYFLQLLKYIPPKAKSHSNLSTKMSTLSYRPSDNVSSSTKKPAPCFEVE
# [9] = target: Melanocortin receptor 4 (Homo sapiens, UniProt P32245); type: functional, cell-based;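 also: Cell-based assay with luminescence read-out, confirmatory dose-response testing for agonist activity of biased ligands at MC4R; human U2OS cells with tagged receptor and beta-arrestin; potency of agonists that increase receptor coupling to beta-arrestin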
# [10] = cells
# [11] = NIH-3T3 fibroblast cytotoxicity, dose response, cytotoxicity control, cell-based, fluorescence, Alamar Blue, secondary assay (AID 2327); type: functional;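 also: NIH-3T3 mouse fibroblasts cultured with fluconazole at 8 µg/mL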
# [12] = cells; type: functional, cell-based
# [13] = fluconazole-exposed Candida albicans growth modulators – fluorescence, retest, confirmation (AID 2467); type: functional, cell-based
# [14] = cells; type: functional, cell-based; remark: listed apart in the source
# [15] = target: T2, Serine/threonine-protein phosphatase (Candida dubliniensis (strain CD36 / CBS 7987 / NCPF 3949 / NRRLY-17841) (Yeast), UniProt B9W6M3); experiment: blockers of CaCl2-induced CDRE-lacZ signaling – S. cerevisiae, luminescence, secondary, dose response (AID 2388); type: functional, cell-based;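 also: yeast reporter cells carrying a calcineurin-responsive lacZ construct stimulated with calcium chloride; luminescent beta-galactosidase reporter signal in whole cells rather than isolated phosphatase activity; potency for inhibition where a drop in reporter signal means calcineurin blockade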
# T2 sequence (B9W6M3 whole entry): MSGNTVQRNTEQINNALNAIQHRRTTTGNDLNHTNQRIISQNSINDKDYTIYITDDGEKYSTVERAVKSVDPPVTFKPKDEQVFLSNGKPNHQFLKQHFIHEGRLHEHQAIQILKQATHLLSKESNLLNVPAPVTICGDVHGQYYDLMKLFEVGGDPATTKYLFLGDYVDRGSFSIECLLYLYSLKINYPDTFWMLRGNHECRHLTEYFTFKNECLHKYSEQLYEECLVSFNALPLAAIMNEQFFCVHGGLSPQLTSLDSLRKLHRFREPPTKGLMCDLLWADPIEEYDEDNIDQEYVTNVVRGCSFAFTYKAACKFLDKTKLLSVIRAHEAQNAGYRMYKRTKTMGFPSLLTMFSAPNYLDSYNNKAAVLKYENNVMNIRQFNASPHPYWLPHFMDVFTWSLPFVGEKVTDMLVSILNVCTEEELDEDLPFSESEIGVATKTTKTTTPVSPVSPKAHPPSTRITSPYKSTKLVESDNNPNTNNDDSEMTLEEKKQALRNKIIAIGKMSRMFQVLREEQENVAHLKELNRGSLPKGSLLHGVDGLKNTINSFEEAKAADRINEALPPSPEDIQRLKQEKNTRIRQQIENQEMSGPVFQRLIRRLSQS
# [16] = THP-1 cell cytotoxicity, dose response, cytotoxicity control for non-replicating M. tuberculosis project (AID 489025); type: functional
# [17] = HepG2 cell cytotoxicity, dose response, cytotoxicity control for non-replicating M. tuberculosis project (AID 489018); type: functional; details: Mycobacterium tuberculosis
# [18] = Vero E6 cell cytotoxicity, dose response, cytotoxicity control for non-replicating M. tuberculosis project, secondary assay (AID 492998); type: functional, VeroE6; details: Vero C1008
# [19] = system: INS1; experiment: INS-1E survival protection against cytokine death – cell-based, luminescence, retest, dose response (AID 449756); type: functional; details: Rattus norvegicus;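 also: cell death triggered by IL-1 beta plus TNF-alpha plus IFN-gamma mixture; protective hits raise ATP signal compared with cytokine alone wells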
# [20] = target: ATP-dependent molecular chaperone HSP82 (Candida albicans (strain WO-1) (Yeast), UniProt C4YTQ8); experiment: steroid-induced GRE reporter decrease in yeast – S. cerevisiae, luminescence, Hsp90 inhibitor project, dose response (AID 2400); type: functional, cell-based;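 also: beta-galactosidase luminescence from glucocorticoid response element reporter as proxy for Hsp90 function; inhibitor potency where signal loss means Hsp90 inhibition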
# [21] = target: T3, Hexokinase HKDC1 (Homo sapiens, UniProt Q2TB90); experiment: activation of HKDC1 glucose phosphorylation – biochemical, W721R variant, dose response (AID 504730); type: functional
# T3 sequence (Q2TB90 whole entry): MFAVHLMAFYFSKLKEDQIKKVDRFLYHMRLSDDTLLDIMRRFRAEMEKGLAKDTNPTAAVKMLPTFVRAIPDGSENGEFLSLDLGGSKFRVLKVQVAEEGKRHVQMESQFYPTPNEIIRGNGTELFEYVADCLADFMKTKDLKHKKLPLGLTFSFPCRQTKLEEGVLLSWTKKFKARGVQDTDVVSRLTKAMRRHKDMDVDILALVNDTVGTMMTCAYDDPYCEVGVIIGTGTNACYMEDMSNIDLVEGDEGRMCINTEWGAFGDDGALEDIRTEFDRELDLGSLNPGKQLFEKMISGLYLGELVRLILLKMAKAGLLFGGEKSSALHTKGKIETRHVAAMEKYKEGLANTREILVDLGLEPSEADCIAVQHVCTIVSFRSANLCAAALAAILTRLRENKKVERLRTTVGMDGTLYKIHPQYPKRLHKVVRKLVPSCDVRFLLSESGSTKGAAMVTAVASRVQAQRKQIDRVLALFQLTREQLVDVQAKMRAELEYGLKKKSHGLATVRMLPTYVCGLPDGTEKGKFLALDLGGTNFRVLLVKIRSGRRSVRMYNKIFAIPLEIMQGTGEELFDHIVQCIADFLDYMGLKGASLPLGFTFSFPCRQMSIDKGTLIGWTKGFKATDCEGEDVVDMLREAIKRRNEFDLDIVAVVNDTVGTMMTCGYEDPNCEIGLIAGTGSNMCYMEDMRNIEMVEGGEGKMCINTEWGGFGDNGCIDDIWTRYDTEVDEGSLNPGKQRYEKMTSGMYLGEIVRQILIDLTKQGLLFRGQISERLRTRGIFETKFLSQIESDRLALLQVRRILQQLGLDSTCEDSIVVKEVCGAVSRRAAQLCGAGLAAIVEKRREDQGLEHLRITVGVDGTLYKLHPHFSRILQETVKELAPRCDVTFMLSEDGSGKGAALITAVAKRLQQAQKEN
# [22] = target: Nonstructural protein 1 (Influenza A virus, UniProt Q194T2); type: functional, Influenza A virus (A/California/07/2009(H1N1))
# [23] = target: Hexokinase-1 (Homo sapiens, UniProt P19367); experiment: HK1 enzyme activation by HKDC1 hits – biochemical, selectivity assay for HKDC1 activator project, dose response (AID 504762); type: functional
# [24] = system: HEK293; experiment: EBV LMP1 TES2 canonical NF-kB signalling blockers – cell-based, HEK293, luciferase, cherry-pick, dose response (AID 588343); type: functional; details: Homo sapiens
# [25] = target: Heat shock protein HSP 90-alpha (Homo sapiens, UniProt P07900); type: functional, organism-based
# [26] = microbe, parasite or virus in culture; type: functional; details: Mycobacterium tuberculosis
# [27] = cells; type: functional
# [28] = target: T4, Heat shock factor protein 1 (Mus musculus, UniProt P38532); experiment: enhancement of HSF1-driven luciferase signal – cell-based, NIH3T3, luminescence, dose retest, confirmation (AID 435004); type: functional;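 also: stress induced by proteasome inhibitor MG132 added 30 min after compound; luciferase reporter driven by HSF1 response element in NIH3T3 cells; actives raise luminescence as potentiators of the MG132 stress response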
# T4 sequence (P38532 whole entry): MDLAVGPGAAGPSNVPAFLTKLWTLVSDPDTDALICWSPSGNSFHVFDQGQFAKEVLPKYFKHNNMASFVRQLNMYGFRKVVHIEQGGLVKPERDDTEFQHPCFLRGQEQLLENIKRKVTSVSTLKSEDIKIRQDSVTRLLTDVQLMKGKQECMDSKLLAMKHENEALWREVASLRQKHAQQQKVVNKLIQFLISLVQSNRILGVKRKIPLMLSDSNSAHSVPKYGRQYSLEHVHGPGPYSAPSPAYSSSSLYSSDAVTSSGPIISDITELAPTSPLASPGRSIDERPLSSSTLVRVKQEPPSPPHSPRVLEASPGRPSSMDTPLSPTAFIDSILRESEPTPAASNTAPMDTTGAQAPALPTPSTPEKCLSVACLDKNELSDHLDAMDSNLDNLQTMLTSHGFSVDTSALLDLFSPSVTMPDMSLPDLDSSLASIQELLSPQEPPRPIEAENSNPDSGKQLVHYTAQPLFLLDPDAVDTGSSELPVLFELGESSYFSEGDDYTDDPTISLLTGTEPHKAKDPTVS
# [29] = target: DNA damage-inducible transcript 3 protein (Mus musculus, UniProt P35639); type: functional, Cricetulus griseus
# [30] = Luminescence Cell-Based Dose Retest to Confirm Inhibitors of Cancer Stem Cells. [Related pubchem assays (depositor defined):AID2717, AID2721]; type: functional; details: Homo sapiens
# [31] = target: T5, Coagulation factor XII (Homo sapiens, UniProt P00748); type: functional;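 also: activated factor XIIa alpha cleaving a fluorogenic AMC peptide substrate; inhibitor potency from loss of enzyme activity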
# T5 sequence (P00748 whole entry): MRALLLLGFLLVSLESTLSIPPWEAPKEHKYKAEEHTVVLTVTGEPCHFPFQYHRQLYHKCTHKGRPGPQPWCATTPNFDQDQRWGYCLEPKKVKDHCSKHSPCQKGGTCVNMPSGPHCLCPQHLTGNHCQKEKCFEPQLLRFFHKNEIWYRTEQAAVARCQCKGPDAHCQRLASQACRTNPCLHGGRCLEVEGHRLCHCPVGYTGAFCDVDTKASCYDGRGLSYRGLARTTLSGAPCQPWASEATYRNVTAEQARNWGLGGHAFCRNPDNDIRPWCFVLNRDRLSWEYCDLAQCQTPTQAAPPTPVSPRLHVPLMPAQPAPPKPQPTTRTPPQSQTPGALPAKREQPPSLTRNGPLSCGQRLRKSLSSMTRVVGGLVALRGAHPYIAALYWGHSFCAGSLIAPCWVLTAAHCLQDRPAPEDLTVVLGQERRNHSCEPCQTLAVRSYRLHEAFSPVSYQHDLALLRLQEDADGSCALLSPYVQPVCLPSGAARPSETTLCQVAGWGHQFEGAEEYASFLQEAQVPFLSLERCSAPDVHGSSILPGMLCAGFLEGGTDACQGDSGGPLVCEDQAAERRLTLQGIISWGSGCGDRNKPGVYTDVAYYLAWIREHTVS
# Sequence of DNA damage-inducible transcript 3 protein (P35639 whole entry): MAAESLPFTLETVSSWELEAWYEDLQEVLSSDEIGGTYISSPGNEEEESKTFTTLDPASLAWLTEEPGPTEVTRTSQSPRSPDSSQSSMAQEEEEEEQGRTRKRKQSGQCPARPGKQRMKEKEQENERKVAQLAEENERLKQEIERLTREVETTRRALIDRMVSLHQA
# Sequence of ATP-dependent molecular chaperone HSP82 (C4YTQ8 whole entry): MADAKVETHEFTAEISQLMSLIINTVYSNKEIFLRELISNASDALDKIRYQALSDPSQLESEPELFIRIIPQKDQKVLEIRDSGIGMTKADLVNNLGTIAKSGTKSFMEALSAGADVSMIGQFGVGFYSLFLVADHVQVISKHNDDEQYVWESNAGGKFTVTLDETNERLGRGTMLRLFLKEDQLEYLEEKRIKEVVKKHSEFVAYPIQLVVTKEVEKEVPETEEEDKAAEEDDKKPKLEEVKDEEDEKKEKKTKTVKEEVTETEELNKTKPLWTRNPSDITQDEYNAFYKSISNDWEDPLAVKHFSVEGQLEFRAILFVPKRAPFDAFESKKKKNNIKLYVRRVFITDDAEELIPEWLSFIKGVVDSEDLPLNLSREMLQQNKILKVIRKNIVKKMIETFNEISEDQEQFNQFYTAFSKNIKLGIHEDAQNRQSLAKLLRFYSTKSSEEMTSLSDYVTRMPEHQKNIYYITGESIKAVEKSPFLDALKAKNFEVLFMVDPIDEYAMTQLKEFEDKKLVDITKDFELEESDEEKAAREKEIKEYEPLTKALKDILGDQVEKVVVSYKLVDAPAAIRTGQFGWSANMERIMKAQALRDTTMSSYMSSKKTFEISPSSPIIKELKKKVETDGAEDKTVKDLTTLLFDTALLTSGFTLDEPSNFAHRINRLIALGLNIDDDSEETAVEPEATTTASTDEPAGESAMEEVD
# Sequence of Melanocortin receptor 4 (P32245 whole entry): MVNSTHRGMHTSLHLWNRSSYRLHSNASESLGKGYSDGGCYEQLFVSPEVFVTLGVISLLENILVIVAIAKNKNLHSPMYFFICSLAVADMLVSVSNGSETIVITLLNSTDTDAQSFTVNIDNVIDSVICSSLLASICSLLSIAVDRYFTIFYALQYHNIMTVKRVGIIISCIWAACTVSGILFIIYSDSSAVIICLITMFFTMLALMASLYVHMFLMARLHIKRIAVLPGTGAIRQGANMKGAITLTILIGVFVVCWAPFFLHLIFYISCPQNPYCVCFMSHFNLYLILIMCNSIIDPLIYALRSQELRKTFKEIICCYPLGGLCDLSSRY
# Sequence of Nonstructural protein 1 (Q194T2 whole entry): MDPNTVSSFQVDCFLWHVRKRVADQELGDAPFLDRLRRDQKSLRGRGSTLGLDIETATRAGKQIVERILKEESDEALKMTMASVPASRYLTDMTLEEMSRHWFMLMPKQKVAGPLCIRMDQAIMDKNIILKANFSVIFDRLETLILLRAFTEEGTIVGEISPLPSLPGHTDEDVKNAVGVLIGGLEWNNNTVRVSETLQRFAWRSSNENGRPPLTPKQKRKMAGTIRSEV
# Sequence of Hexokinase-1 (P19367 whole entry): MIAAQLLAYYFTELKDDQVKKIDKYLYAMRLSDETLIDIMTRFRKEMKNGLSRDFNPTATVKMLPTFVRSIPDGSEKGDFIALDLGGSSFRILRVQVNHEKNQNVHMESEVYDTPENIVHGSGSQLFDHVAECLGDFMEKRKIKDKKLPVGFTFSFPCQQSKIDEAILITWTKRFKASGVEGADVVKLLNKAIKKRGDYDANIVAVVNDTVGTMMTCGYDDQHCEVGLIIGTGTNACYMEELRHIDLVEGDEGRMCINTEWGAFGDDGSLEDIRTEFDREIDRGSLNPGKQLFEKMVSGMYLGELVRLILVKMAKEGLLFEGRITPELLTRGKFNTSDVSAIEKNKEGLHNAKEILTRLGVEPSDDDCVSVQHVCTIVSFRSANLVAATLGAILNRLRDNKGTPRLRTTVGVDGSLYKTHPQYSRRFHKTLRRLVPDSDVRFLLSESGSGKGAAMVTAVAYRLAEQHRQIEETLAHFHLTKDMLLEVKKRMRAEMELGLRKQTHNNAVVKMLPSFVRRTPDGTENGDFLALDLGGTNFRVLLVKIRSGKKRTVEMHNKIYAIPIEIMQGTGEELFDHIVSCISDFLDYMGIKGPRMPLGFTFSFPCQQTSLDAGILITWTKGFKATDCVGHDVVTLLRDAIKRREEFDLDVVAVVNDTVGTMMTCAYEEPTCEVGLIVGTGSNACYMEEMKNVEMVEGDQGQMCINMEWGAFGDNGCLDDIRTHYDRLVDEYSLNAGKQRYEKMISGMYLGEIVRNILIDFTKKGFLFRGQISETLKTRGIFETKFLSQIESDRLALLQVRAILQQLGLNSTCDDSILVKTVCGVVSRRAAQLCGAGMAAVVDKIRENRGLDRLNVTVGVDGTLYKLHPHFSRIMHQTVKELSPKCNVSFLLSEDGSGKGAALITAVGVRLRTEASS
smiles,measurement,setting,value
CN(C)CCCN(C(=O)c1cc2cc([N+](=O)[O-])ccc2s1)c1nc2cc3c(cc2s1)OCCO3,CC50,[1],24.5 µM (active)
same,EC50,[2],1.65 µM (active)
same,EC50,[3],7.44 µM (active)
same,EC50,[4],< 0.1 µM (active)
same,EC50,[5],6.94 µM (active)
same,EC50,[6],2.89 µM (inconclusive)
same,EC50,[7],2.96 µM (inconclusive)
same,EC50,[8],> 100 µM (inactive)
same,EC50,[9],> 89.2 µM (inactive)
same,EC50,[10],0.148 µM (active)
O=C(N/N=C/c1ccccc1O)c1cccc(C(F)(F)F)c1,EC50,[11],> 150 µM (inactive)
same,EC50,[12],7.53 µM (active)
same,EC50,[13],1.39 µM (active)
same,EC50,[14],> 350 µM (not active)
same,EC50,[15],> 180 µM (inactive)
same,CC50,[16],0.106 µM (active)
same,CC50,[17],6.7 µM (active)
same,CC50,[18],3.65 µM (active)
same,AC50,[19],1.11 µM (active)
same,EC50,[20],> 150 µM (inactive)
CC(=NNC(=S)Nc1cccc(Cl)c1)c1ccccn1,EC50,[21],0.615 µM (active)
same,IC50,[22],15.4 µM (active)
same,EC50,[23],> 80 µM (inactive)
same,AC50,[24],0.341 µM (active)
same,AC50,[25],16.2 µM (active)
S=C1SCN(Cc2ccco2)CN1Cc1ccco1,CC50,[26],16.8 µM (active)
same,CC50,[16],8.73 µM (active)
same,CC50,[18],18.4 µM (active)
same,IC50,[27],22.4 µM (active)
same,AC50,[24],0.574 µM (active)
C=CCn1c(CCNC(=O)c2ccc(Cl)c(Cl)c2)nnc1SCCOc1ccc(OC)cc1,EC50,[28],16.8 µM (active)
same,Absolute IC50 (CHOP),[29],10 µM
CCC(CC)c1nnc(NC(=O)c2c(C)nn(Cc3ccccc3Cl)c2C)s1,Absolute IC50 (CHOP),[29],< 10 µM
COc1ccc(C)cc1NC(=O)CSc1nnc(COc2ccc(Cl)cc2)n1Cc1ccco1,AC50,[30],5.42 µM (active)
same,IC50,[31],> 50 µM (inactive)
same,EC50,[28],259 µM (active)
O=C1CC(N2CCN(Cc3ccc(Cl)cc3)CC2)C(=O)N1CCc1ccccc1 (configuration not stated),IC50,[31],> 50 µM (inactive)
